# Test results: patent US10189839B2, “Tricyclic imidazole compounds as inhibitors of tryptophan hydroxylase” (ACTELION PHARMACEUTICALS LTD, priority 2013, dated 2019)
# Target: T1, full length human TPH1 (Homo sapiens, UniProt P17752)
# T1 construct: To generate the enzyme, full length human TPH1 is cloned into the plasmid pET20b(+); made in house; host or cells: E. coli
# T1 sequence (P17752 1-444): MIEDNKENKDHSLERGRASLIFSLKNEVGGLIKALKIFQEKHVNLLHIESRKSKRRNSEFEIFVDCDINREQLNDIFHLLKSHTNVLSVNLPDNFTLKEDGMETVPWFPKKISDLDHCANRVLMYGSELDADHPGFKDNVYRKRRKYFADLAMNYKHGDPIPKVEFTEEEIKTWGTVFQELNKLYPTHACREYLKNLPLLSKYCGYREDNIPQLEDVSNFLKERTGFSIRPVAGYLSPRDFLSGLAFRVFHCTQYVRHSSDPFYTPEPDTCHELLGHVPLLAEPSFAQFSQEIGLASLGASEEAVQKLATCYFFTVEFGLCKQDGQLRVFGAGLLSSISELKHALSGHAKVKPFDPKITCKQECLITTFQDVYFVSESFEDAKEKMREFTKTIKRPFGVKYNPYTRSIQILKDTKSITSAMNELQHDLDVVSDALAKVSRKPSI
# Assay: Biochemical in vitro assay using fluorescence readout (TPH1 enzyme activity)
# Settings: Table 1, mean where determined several times
# Summary of the method: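 E. coli-expressed full-length human TPH1 (40-80 nM), affinity- and size-exclusion-purified, incubated 60 min at 15° C. in 0.1M Tris-HCl pH 7.6 with 1 mM DTT, 0.2 mg/ml catalase, 100 μM 6-methyltetrahydropterine and 40 μM L-tryptophan. 5-Hydroxy-L-tryptophan read by fluorescence (ex 300/em 540 nm) after HClO4 quench; IC50 versus vehicle, mean where repeated.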
row,SMILES,IC50 [nM]
1,"CS(=O)(=O)Nc1ccc(OC2(C(=O)N3CCc4nc5n(c4C3c3ccc(Cl)cc3F)CCCC5)CC2)c(Cl)n1 (stereo not shown) [Example 1.1.19, N-(6-chloro-5-(1-(1-(4-chloro-2-fluorophenyl)-1,2,3,4,6,7,8,9-octahydroimidazo[1,2-a:5,4-c′]dipyridine-2-carbonyl)cyclopropoxy)pyridin-2-yl)methanesulfonamide]",58
2,"CCc1nc(C(=O)NC2CC2)ccc1OCC(=O)N1CCc2nc3n(c2[C@@H]1c1sc(C)nc1C)CCCC3 [Example 1.10.17, (R)-N-cyclopropyl-5-(2-(1-(2,4-dimethylthiazol-5-yl)-3,4,6,7,8,9-hexahydroimidazo[1,2-a:5,4-c′]dipyridin-2(1H)-yl)-2-oxoethoxy)-6-ethylpicolinamide]",5
3,"Cc1nc(C(F)(F)F)sc1C1c2c(nc3n2CCCC3)CCN1C(=O)COc1ccc(NS(C)(=O)=O)nc1Cl (stereo not shown) [Example 1.18.1, N-(6-chloro-5-(2-(1-(4-methyl-2-(trifluoromethyl)thiazol-5-yl)-3,4,6,7,8,9-hexahydroimidazo[1,2-a:5,4-c′]dipyridin-2(1H)-yl)-2-oxoethoxy)pyridin-2-yl)methanesulfonamide]",126
4,"Cc1ccc(C2c3c(nc4n3CCOC4)CCN2C(=O)COc2ccc(C(=O)N(C)C)nc2Cl)c(F)c1 (stereo not shown) [Example 6.5.1, 6-chloro-5-(2-(6-(2-fluoro-4-methylphenyl)-3,4,8,9-tetrahydro-1H-pyrido[4′,3′:4,5]imidazo[2,1-c][1,4]oxazin-7(6H)-yl)-2-oxoethoxy)-N,N-dimethylpicolinamide]",7
5,"Cc1nc(C)c(C2c3c(nc4n3CCCC4)CCN2C(=O)COc2ccc(N3CCCS3(=O)=O)nc2Cl)s1 (stereo not shown) [Example 1.10.14, 2-((2-chloro-6-(1,1-dioxidoisothiazolidin-2-yl)pyridin-3-yl)oxy)-1-(1-(2,4-dimethylthiazol-5-yl)-3,4,6,7,8,9-hexahydroimidazo[1,2-a:5,4-c′]dipyridin-2(1H)-yl)ethanone]",14
6,"COc1ccc(C2c3c(nc4n3CCCC4)CCN2C(=O)COc2ccc(NS(C)(=O)=O)nc2Cl)c(F)c1 (stereo not shown) [Example 1.21.2, N-(6-chloro-5-(2-(1-(2-fluoro-4-methoxyphenyl)-3,4,6,7,8,9-hexahydroimidazo[1,2-a:5,4-c′]dipyridin-2(1H)-yl)-2-oxoethoxy)pyridin-2-yl)methanesulfonamide]",78
7,"O=C(NC1CC1)c1ccc(OCC(=O)N2CCc3nc4n(c3C2c2ccc(Cl)cc2F)CCCC4)c(Cl)n1 (stereo not shown) [Example 1.1.6, 6-chloro-5-(2-(1-(4-chloro-2-fluorophenyl)-3,4,6,7,8,9-hexahydroimidazo[1,2-a:5,4-c′]dipyridin-2(1H)-yl)-2-oxoethoxy)-N-cyclopropylpicolinamide]",19
8,"CC(=O)N1CCn2c(nc3c2C(c2sc(C(=O)N(C)C)cc2F)N(C(=O)COc2ccc(N4CCOCC4)nc2Cl)CC3)C1 (stereo not shown) [Example 5.7.2, 5-(7-acetyl-2-(2-((2-chloro-6-morpholinopyridin-3-yl)oxy)acetyl)-1,2,3,4,6,7,8,9-octahydropyrido[4′,3′:4,5]imidazo[1,2-a]pyrazin-1-yl)-4-fluoro-N,N-dimethylthiophene-2-carboxamide]",6
9,"Cc1nc(C)c(C2c3c(nc4n3CCCC4)CCN2C(=O)COc2ccc(C(F)(F)F)nc2Cl)s1 (stereo not shown) [Example 1.10.7, 2-((2-chloro-6-(trifluoromethyl)pyridin-3-yl)oxy)-1-(1-(2,4-dimethylthiazol-5-yl)-3,4,6,7,8,9-hexahydroimi-dazo[1,2-a:5,4-c′]dipyridin-2(1H)-yl)ethanone]",177
10,"Cc1ccc(C2c3c(nc4n3CCCC4)CCN2C(=O)COc2ccc(-c3ncco3)nc2Cl)c(F)c1 (stereo not shown) [Example 1.2.2, 2-((2-chloro-6-(oxazol-2-yl)pyridin-3-yl)oxy)-1-(1-(2-fluoro-4-methylphenyl)-3,4,6,7,8,9-hexahydroimi-dazo[1,2-a:5,4-c′]dipyridin-2(1H)-yl)ethanone]",11
11,"CN(C(=O)c1ccc(OCC(=O)N2CCc3nc4n(c3C2c2ccc(C3CC3)cc2F)CCCC4)c(Cl)n1)C1CC1 (stereo not shown) [Example 1.8.1, 6-chloro-N-cyclopropyl-5-(2-(1-(4-cyclopropyl-2-fluorophenyl)-3,4,6,7,8,9-hexahydroimidazo[1,2-a:5,4-c′]dipyridin-2(1H)-yl)-2-oxoethoxy)-N-methylpicolinamide]",20
12,"CCc1nc(NS(C)(=O)=O)ccc1OCC(=O)N1CCc2nc3n(c2C1c1sccc1F)CCS3 (stereo not shown) [Example 4.6.3, N-(6-ethyl-5-(2-(5-(3-fluorothiophen-2-yl)-2,3,7,8-tetrahydrothiazolo[2′,3′:2,3]imidazo[4,5-c]pyridin-6(5H)-yl)-2-oxoethoxy)pyridin-2-yl)methanesulfonamide]",19
13,"COCCN(C)c1ccc(OCC(=O)N2CCc3nc4n(c3C2c2ccc(Cl)cc2F)CCCC4)c(Cl)n1 (stereo not shown) [Example 1.1.24, 1-(1-(4-chloro-2-fluorophenyl)-3,4,6,7,8,9-hexahydroimidazo[1,2-a:5,4-c′]dipyridin-2(1H)-yl)-2-((2-chloro-6-((2-methoxyethyl)(methyl)amino)pyridin-3-yl)oxy)ethan-1-one]",62
14,"CC(=O)N1CCn2c(nc3c2C(c2ccc(C4CC4)cc2F)N(C(=O)COc2cccnc2C(F)(F)F)CC3)C1 (stereo not shown) [Example 5.2.15, 1-(7-acetyl-1-(4-cyclopropyl-2-fluorophenyl)-3,4,6,7,8,9-hexahydropyrido[4′,3′:4,5]imidazo[1,2-a]pyrazin-2(1H)-yl)-2-((2-(trifluoromethyl)pyridin-3-yl)oxy)ethanone]",10
15,"Cc1nc(C)c(C2c3c(nc4n3CCCC4)CCN2C(=O)COc2ccc(C(F)(F)F)cc2Cl)s1 (stereo not shown) [Example 1.10.11, 2-(2-chloro-4-(trifluoromethyl)phenoxy)-1-(1-(2,4-dimethylthiazol-5-yl)-3,4,6,7,8,9-hexahydroimi-dazo[1,2-a:5,4-c′]dipyridin-2(1H)-yl)ethanone]",132
16,"Cc1ccc(C2c3c(nc4n3CCCC4)CCN2C(=O)COc2ccc(NS(C)(=O)=O)nc2Cl)c(F)c1F (stereo not shown) [Example 1.9.2, N-(6-chloro-5-(2-(1-(2,3-difluoro-4-methylphenyl)-3,4,6,7,8,9-hexahydroimidazo[1,2-a:5,4-c′]dipyridin-2(1H)-yl)-2-oxoethoxy)pyridin-2-yl)methanesulfonamide]",26
17,"CC(=O)N1CCn2c(nc3c2C(c2sccc2F)N(C(=O)COc2ccc(C(=O)N(C)C)nc2Cl)CC3)C1 (stereo not shown) [Example 5.13.2, 5-(2-(7-acetyl-1-(3-fluorothiophen-2-yl)-3,4,6,7,8,9-hexahydropyrido[4′,3′:4,5]imidazo[1,2-a]pyrazin-2(1H)-yl)-2-oxoethoxy)-6-chloro-N,N-dimethylpicolinamide]",24
18,"CC(=O)N1CCn2c(nc3c2C(c2ncccc2F)N(C(=O)COc2ccc(N4CCOCC4)nc2Cl)CC3)C1 (stereo not shown) [Example 5.10.1, 1-(7-acetyl-1-(3-fluoropyridin-2-yl)-3,4,6,7,8,9-hexahydropyrido[4′,3′:4,5]imidazo[1,2-a]pyrazin-2(1H)-yl)-2-((2-chloro-6-morpholinopyridin-3-yl)oxy)ethanone]",14
19,"CC(=O)N1CCn2c(nc3c2C(c2ncc(C4CC4)cc2F)N(C(=O)COc2cc(F)cnc2Cl)CC3)C1 (stereo not shown) [Example 5.4.7, 1-(7-acetyl-1-(5-cyclopropyl-3-fluoropyridin-2-yl)-3,4,6,7,8,9-hexahydropyrido[4′,3′:4,5]imidazo[1,2-a]pyrazin-2(1H)-yl)-2-((2-chloro-5-fluoropyridin-3-yl)oxy)ethanone]",431
